Reference: US20230212131A1, “COLLAGEN 1 TRANSLATION INHIBITORS AND METHODS OF USE THEREOF” (Anima Biotech Inc., priority 2020, published 2023)

Tested on: collagen 1 (COL1)
Assay: WI-38 collagen 1 inhibition assay
Assay type: cell-based, human
Conditions: Cellular EC50, WI-38 cells; values are classes of LogEC50
How it was run: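 WI-38 fibroblasts serum-starved (0.25% FBS 2 h, then none 24 h), then given a collagen induction cocktail together with compound. Cells fixed, immunostained for collagen I with DAPI counterstain, and imaged at 20×; per-cell fluorescence quantified by image analysis.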

Row | Structure (SMILES) | COL1 Efficacy (LogEC50)
1 | CC(=O)N1CCC(Oc2ccc(C(=O)Nc3nc(-c4ccccc4Cl)cs3)nc2)CC1 [compound 440, 5-((1-acetylpiperidin-4-yl)oxy)-N-(4-(2-chlorophenyl)thiazol-2-yl)picolinamide] | +++ (+++: <−6)
2 | O=C(Nc1nc(-c2ccccc2Cl)c[nH]1)c1ccc(N2CCOCC2)cn1 [Compound 404, N-(4-(2-chlorophenyl)-1H-imidazol-2-yl)-5-morpholinopicolinamide] | +++ (+++: <−6)
3 | O=C(Nc1nc(-c2ccc(Cl)cc2Cl)cs1)c1ccccc1 [Compound 302, N-(4-(2,4-dichlorophenyl)thiazol-2-yl)benzamide] | ++ (++: −5 to −6)
4 | COCC(=O)N1CC2(C1)CN(c1ccc(C(=O)Nc3nc(-c4ccccc4Cl)cs3)nc1)C2 [Compound 450, N-(4-(2-chlorophenyl)thiazol-2-yl)-5-(6-(2-methoxyacetyl)-2,6-diazaspiro[3.3]heptan-2-yl)picolinamide] | +++ (+++: <−6)
5 | O=C(Nc1nc(-c2cc(Cl)sc2Cl)cs1)c1ccc(Cl)cc1 [compound 311] | ++ (++: −5 to −6)
6 | CS(=O)(=O)N1CCN(c2ccc(C(=O)Nc3nc(-c4ccccc4Cl)cs3)cc2)CC1 [compound 365, N-[4-(2-chlorophenyl)thiazol-2-yl]-4-(4-methylsulfonylpiperazin-1-yl)benzamide] | +++ (+++: <−6)
7 | CC(=O)N1CCN(c2ccc(C(=O)Nc3nc(-c4ccccc4Cl)cs3)s2)CC1 [Compound 463, 5-(4-acetylpiperazin-1-yl)-N-(4-(2-chlorophenyl)thiazol-2-yl)thiophene-2-carboxamide] | +++ (+++: <−6)
8 | COc1ccc(C(=O)Nc2nc(-c3cncnc3C)cs2)cc1 [Compound 335, 4-methoxy-N-[4-(4-methylpyrimidin-5-yl)thiazol-2-yl]benzamide] | + (+: >−5)
9 | NC1CCN(c2ccc(C(=O)Nc3nc(-c4ccccc4Cl)cs3)nc2)CC1 [compound 475, 5-(4-aminopiperidin-1-yl)-N-(4-(2-chlorophenyl)thiazol-2-yl)picolinamide] | +++ (+++: <−6)
10 | COc1ccc(C(=O)Nc2nc(-c3cnn(C)c3)cs2)cc1 [Compound 331, 4-methoxy-N-[4-(1-methylpyrazol-4-yl)thiazol-2-yl]benzamide] | + (+: >−5)
11 | Cc1ccc(C(=O)Nc2nc(-c3cnn(C)c3)cs2)cn1 [Compound 317, 6-methyl-N-[4-(1-methylpyrazol-4-yl)thiazol-2-yl]pyridine-3-carboxamide] | + (+: >−5)
12 | O=C(Nc1nc(-c2ccccc2Cl)cs1)c1cnc(N2CCOCC2)cn1 [compound 367, N-[4-(2-chlorophenyl)thiazol-2-yl]-5-morpholino-pyrazine-2-carboxamide] | +++ (+++: <−6)
13 | O=C(Nc1nc(-c2ccccc2Cl)cs1)c1cnc(N2CCOCC2)nc1 [compound 358, N-[4-(2-chlorophenyl)thiazol-2-yl]-2-morpholino-pyrimidine-5-carboxamide] | − (−: inactive)
14 | CN1CC2(CCN(c3ccc(C(=O)Nc4nc(-c5ccccc5Cl)cs4)nc3)CC2)C1 [compound 456, N-(4-(2-chlorophenyl)thiazol-2-yl)-5-(2-methyl-2,7-diazaspiro[3.5]nonan-7-yl)picolinamide] | +++ (+++: <−6)
15 | O=C(Nc1nc(-c2ccc(Cl)cc2Cl)cs1)c1ccc(F)cc1 [Compound 308, N-(4-(2,4-dichlorophenyl)thiazol-2-yl)-4-fluorobenzamide] | ++ (++: −5 to −6)
16 | COc1ccc(C(=O)Nc2nc(-c3cccc4c3OCCO4)cs2)cc1 [Compound 337, N-[4-(2,3-dihydro-1,4-benzodioxin-5-yl)thiazol-2-yl]-4-methoxy-benzamide] | ++ (++: −5 to −6)
